Consider eleven molecules from PubChem BioAssay (NCI).

Test systems include SNB-19 CNS; OVCAR-4 ovarian; A498 renal; NCI-H226 lung; CCRF-CEM leukemia; M14 melanoma; EKVX NSCLC; A549 NSCLC; SF-268 CNS; HCC-2998 colon.
What all share (assay): NCI anticancer screen, dose series, 48 h

The structures appear in SMILES notation.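 Five concentrations, 48 hours, 96-well plates. GI50: concentration for 50% inhibition of growth. The concentration for full growth arrest is given as TGI.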

For `O=C1NC(=O)C(N2C(=O)c3ccccc3C2=O)CC1O` (stereo not drawn), the GI50 with SNB-19 CNS, in the test on OVCAR-4 ovarian, in the test with A498 renal, in the test with NCI-H226 lung, with CCRF-CEM leukemia and in the test with M14 melanoma was > 100 µM each time. Further, the GI50 in the test with EKVX NSCLC, with A549 NSCLC and in the test with SF-268 CNS was > 100 µM each time. Also, the TGI in the test with SNB-19 CNS, in the test on OVCAR-4 ovarian, in the test on A498 renal, with NCI-H226 lung, with CCRF-CEM leukemia and in the test with M14 melanoma was > 100 µM each time. For the same molecule, the TGI in the test with EKVX NSCLC, with A549 NSCLC and with SF-268 CNS was > 100 µM throughout.
For the molecule `COC(=O)C1(C)CCc2c(OC)ccc(OC)c2C1=O` (stereo not drawn), the TGI with HCC-2998 colon, in the test on SNB-19 CNS, in the test on OVCAR-4 ovarian, in the test with NCI-H226 lung, with CCRF-CEM leukemia and in the test with M14 melanoma was > 100 µM throughout. In addition, the TGI in the test on EKVX NSCLC, in the test on A549 NSCLC and with SF-268 CNS was > 100 µM in each case.
`CO[C@H]1CC(O[C@@H]2/C(C)=C/C[C@@H]3C[C@@H](C[C@]4(C=C[C@H](C)[C@@H](C5CCCCC5)O4)O3)OC(=O)[C@@H]3C=C(C)[C@@H](O)[C@H]4OC/C(=C\C=C\[C@@H]2C)[C@]43O)O[C@@H](C)C1O[C@H]1C[C@H](OC)[C@@H](O)[C@H](C)O1` (stereo partly drawn): the GI50 in the test on HCC-2998 colon is 1.51 µM; with SNB-19 CNS it was 2.03 µM; in the test on OVCAR-4 ovarian, 1.52 µM; in the test with NCI-H226 lung it was 1.45 µM; in the test with CCRF-CEM leukemia, 1.88 µM; with M14 melanoma it was 1.67 µM. Moreover, the GI50 in the test with SF-268 CNS was 1.69 µM. The TGI in the test on HCC-2998 colon was found to be 3 µM; in the test with SNB-19 CNS it was 6.52 µM; in the test with OVCAR-4 ovarian, 2.88 µM; in the test with NCI-H226 lung, 2.95 µM; in the test with CCRF-CEM leukemia it was 4.4 µM; in the test on M14 melanoma it was 3.13 µM. Besides, the TGI with SF-268 CNS was 3.18 µM.
Regarding `C/C(=C\c1ccc2ccccc2c1)[N+](=O)[O-]`, the GI50 is 2.08 µM in the test with HCC-2998 colon; 6.15 µM in the test on SNB-19 CNS; 1.65 µM with OVCAR-4 ovarian; 8.63 µM in the test with A498 renal; 2.41 µM in the test with NCI-H226 lung; 1.89 µM in the test on CCRF-CEM leukemia. Besides, the GI50 is 2.2 µM with M14 melanoma, 4.58 µM with A549 NSCLC and 1.91 µM in the test with SF-268 CNS. The TGI was 4.23 µM in the test on HCC-2998 colon; 19.7 µM in the test with SNB-19 CNS; 3.01 µM in the test on OVCAR-4 ovarian; 20.9 µM with A498 renal; 6.97 µM in the test on NCI-H226 lung; 5.65 µM in the test on CCRF-CEM leukemia. Besides, the TGI was 4.94 µM in the test on M14 melanoma, 19.3 µM with A549 NSCLC and 3.72 µM in the test on SF-268 CNS.
Consider `CC#CCC1CCC(OCC)=CC1=O` (stereo not drawn), for which the TGI with SNB-19 CNS, with OVCAR-4 ovarian, with NCI-H226 lung, in the test on CCRF-CEM leukemia, with M14 melanoma and with EKVX NSCLC was > 100 µM in each case. Also, the TGI in the test on A549 NSCLC and in the test on SF-268 CNS was > 100 µM each time.
With `OCc1ccc(N2CCCC2c2ccccc2)cc1Cl` (stereo not drawn), the GI50 in the test with HCC-2998 colon was 4.88 µM; in the test on SNB-19 CNS, 13.5 µM; in the test with OVCAR-4 ovarian it was 1.39 µM; with A498 renal, 0.136 µM; with NCI-H226 lung it was 0.126 µM; in the test on CCRF-CEM leukemia, 6.44 µM. Also, the GI50 was 5.24 µM in the test on M14 melanoma, 2.87 µM in the test with A549 NSCLC and 13.2 µM in the test on SF-268 CNS. The TGI was 17.5 µM with HCC-2998 colon; > 84 µM with SNB-19 CNS; 14.2 µM in the test on OVCAR-4 ovarian; 0.306 µM in the test with A498 renal; 0.325 µM with NCI-H226 lung; 39.7 µM in the test with CCRF-CEM leukemia. Also, the TGI with M14 melanoma came to 21.3 µM; in the test on A549 NSCLC, 14.9 µM; in the test with SF-268 CNS it was 49.5 µM.
On to `NC(CSC1c2ccccc2-c2ccccc21)C(=O)O` (stereo not drawn), for which the TGI with SNB-19 CNS, in the test with OVCAR-4 ovarian, in the test with A498 renal, in the test with NCI-H226 lung, with CCRF-CEM leukemia and with M14 melanoma was > 100 µM throughout. Further, the TGI in the test with EKVX NSCLC and in the test with A549 NSCLC was > 100 µM in each case.
As to `N#CC(=C1C=CC(=NO)C=C1)c1ccc(Cl)cc1`, the TGI in the test on HCC-2998 colon was 33.1 µM; with SNB-19 CNS it was > 100 µM; in the test with OVCAR-4 ovarian it was 60.4 µM; in the test with A498 renal, > 100 µM; in the test with CCRF-CEM leukemia, 9.01 µM; with M14 melanoma, 41.5 µM. The figures for the TGI with A549 NSCLC and in the test with SF-268 CNS were 49.7 µM and 48 µM, respectively.
On to `O=C(NC1CCCCC1)NS(=O)(=O)c1ccc2c(c1)CCC2`, for which the TGI in the test with HCC-2998 colon, in the test on SNB-19 CNS, in the test on NCI-H226 lung, in the test with CCRF-CEM leukemia, in the test with M14 melanoma and in the test on EKVX NSCLC was > 100 µM throughout. In addition, the TGI with A549 NSCLC and in the test with SF-268 CNS was > 100 µM throughout.
Regarding `O=C(O)CN1CCN(CC(=O)O)CC(=O)[O][Hg][O]C(=O)C1`, the GI50 was 29.8 µM in the test on SNB-19 CNS; 17.7 µM with OVCAR-4 ovarian; > 100 µM with A498 renal; > 100 µM in the test on NCI-H226 lung; 3.96 µM with CCRF-CEM leukemia; 16.4 µM in the test on M14 melanoma. In addition, the GI50 with EKVX NSCLC was 21 µM; in the test with A549 NSCLC it was > 100 µM; in the test with SF-268 CNS, 20.7 µM. The TGI in the test with SNB-19 CNS was > 100 µM; in the test with OVCAR-4 ovarian, 34 µM; with A498 renal, > 100 µM; with NCI-H226 lung, > 100 µM; with CCRF-CEM leukemia, 32 µM; in the test with M14 melanoma it was 31 µM. Besides, the TGI in the test on EKVX NSCLC is 41.5 µM; in the test on A549 NSCLC it was > 100 µM; with SF-268 CNS it was 52.6 µM.
For `O=C1/C(=C/c2ccccc2[N+](=O)[O-])Cc2ccccc21`, the GI50 was 1.64 µM with HCC-2998 colon; 10.6 µM in the test on SNB-19 CNS; 2.95 µM in the test with OVCAR-4 ovarian; 2.17 µM in the test on A498 renal; 2.1 µM in the test with NCI-H226 lung; 1.97 µM in the test with M14 melanoma. Besides, the results for the GI50 with A549 NSCLC and in the test with SF-268 CNS were 2.5 µM and 3.1 µM, respectively. Also, the TGI in the test with HCC-2998 colon is 3.14 µM; in the test with SNB-19 CNS it was 41.2 µM; with OVCAR-4 ovarian, 29.4 µM; in the test on A498 renal it was 5.36 µM; in the test on NCI-H226 lung it was 9.03 µM; in the test on M14 melanoma, 3.96 µM. The TGI is 11 µM in the test on A549 NSCLC and 29.6 µM in the test with SF-268 CNS.
